From patent US10556860B2, “hTERT modulators and methods of use” (Arizona Board of Regents on Behalf of the University of …, priority 2015, dated 2020)
“And” between values parts separate entries of the source, which are not always exact repeats. Equal values may be shown once.

Tests used:
hTERT mRNA = assay: qPCR of hTERT mRNA in MCF7 cells; type: cell-based, human
Procedure: qPCR. MCF7 and melanoma cells were treated with GTC365 and BRACO-19 for 72 h. Total RNA was extracted using an RNeasy mini-prep kit (Qiagen) and quantitated by measuring absorbance at 260 nm. cDNA was synthesized using a Takara PrimeScript™ RT Reagent Kit with gDNA eraser and then used as a template for qPCR. The qPCR was performed using Kapa Probe Fast qPCR Master Mix with ABI Taqman probes of hTERT (Hs00972656_m1), BCL2 (HS00608023_m1, FAM-labeled) or MYC (Hs00153408_m1), and GAPDH (Hs02758991_g1, VIC-labeled). The Ct values were measured by running Rotor-Gene Q, and the relative quantity of hTERT, BCL2, and MYC mRNA was obtained compared to GAPDH as an internal control.
BCL2 is a downstream molecule to hTERT such that BCL2 expression is activated by hTERT to repress apoptosis. To further define the effect of GTC365 on the transcription of hTERT, the relative mRNA levels of MYC and BCL2 were determined by quantitative PCR analysis in MCF7 cells after treatment with GTC365 for 72 h. […] A series of GTC260 analogs were synthesized and their effect on hTERT gene expression in MCF7A and U87 cells determined (FIG. 7). […] Therefore, GTC365 directly repressed the transcription of hTERT and then led to a downstream decrease of BCL2 expression.

[1] = tested on: hTERT WT G4 (5-12 G-quadruplex); assay: CD melting (Tm), hTERT WT G4; type: binding, human
Procedure: (§1) Circular dichroism. Oligomers of WT, G124A, G124/125A, G138/139A and G146A were synthesized and HPSF-purified by MGW Operon, Inc. For CD analysis, oligomers (5 μM) in a buffer containing 10 mM Tris-HCl (pH 7.5) and 140 mM KCl were annealed. For the CD analysis of the complex of oligomers and compounds, oligomers (5 μM) in a buffer containing 10 mM Tris-HCl (pH 7.5) and 5 mM KCl for GTC365 or 1 mM KCl for BRACO-19 were annealed. Oligomers and GTC365 or BRACO-19 were incubated overnight at room temperature. For the full-length of C-rich strand, the oligomer in a buffer of 10 mM Na cacodylate (pH 6.6) was annealed and then incubated with GTC365 overnight. CD analysis was conducted on a Jasco 810 spectropolarimeter (Jasco, Easton, Md.) using a quartz cell with 1 mm of path length, 1 nm of band width, and 1 s of response time for spectra at 20° C. Melting curves for the determination of Tm were obtained by recording ellipticity at 262 nm with increasing temperatures from 25° C. to 95° C. at a rate of 1.6° C./min. Tm of the C-rich strand with GTC365 was obtained from the CD signal at 286 nm within 10-60° C.
(§2) CD and DMS footprinting analyses were conducted to characterize the binding of GTC365 and BRACO-19 to the 5-12 G-quadruplex. […] To verify the effects of compounds on the thermal stability of the WT and the mutant G-quadruplexes, Tms were determined by CD. […] Since acridine derivatives are known to bind to telomeric G-quadruplex, the effects of GTC365 and BRACO-19 on telomeric G-quadruplex stability were compared by CD.

Telomeric G4 = assay: CD melting (Tm), telomeric G4; type: binding
Procedure: as §1, §2
In contrast, BRACO-19 increased the Tm of telomeric G-quadruplex by ˜60% compared to that of the hTERT G-quadruplex at 0.5 and 1 equiv. A summary of the comparative Tms of GTC365 and BRACO-19 in hTERT and telomeric DNA is shown below.

[2] = tested on: telomere length in MCF7 cells; assay: Telomere length assay (qPCR) in MCF7 cells; type: cell-based, human; conditions: 0.5 μM
Procedure: Telomere length assay. MCF7 cells were treated with DMSO, GTC365 for 5-10 days, or BRACO-19 for 25-30 days. Meanwhile, cells were subcultured to maintain <90% confluent. Cells were collected by cell scraper and then subjected to gDNA extraction by DNA extraction kit (Qiagen). Ten ng of gDNA was used for SYBR Green I-based qPCR assay with 1 M betaine, 700 nM telomere primers, and 200 nM 36B4 single-copy gene. A pair of Tel1 and Tel2 was used for amplification of the telomere region and a pair of 36B4F and 36B4R for amplification of a single-copy gene to normalize data. The PCR was initiated at 95° C. for 3 min and then 27 cycles at 95° C. for 3 sec and 60° C. for 2 min. The fluorescence signal at 60° C. was acquired. Triplicate data was averaged and normalized to 36B4 to obtain ΔCt. The relative telomere length was determined compared to the DMSO.
hTERT-positive MCF7 breast cancer cell lines were used to gain mechanistic insight into how the GTC365-induced inhibition of proliferation occurs. Change in relative telomere length by GTC365 was measured by qPCR with gDNA extracted from GTC365-treated MCF7 cells. After 10 days of treatment GTC365 decreased telomere length in a dose-dependent manner, and at a dose of 0.5 μM, the telomere length was reduced by 20%. In contrast, BRACO-19 reduced telomere length by ˜12% at the same concentration but required 25-30 days of treatment (FIG. 9).

Structure (SMILES) | effect on hTERT transcription / mRNA level (hTERT mRNA) | increase in Tm (ΔTm) ([1]; 0.5 equivalents) | increase in Tm (ΔTm) ([1]; 1 equivalent) | Tm of telomeric G-quadruplex increased compared to that of the hTERT G-quadruplex (Telomeric G4; 0.5 and 1 equiv) | increase in Tm (ΔTm) (Telomeric G4; 0.5 equivalents) | increase in Tm (ΔTm) (Telomeric G4; 1 equivalent) | reduction of telomere length ([2]; 25-30 days) | decrease of hTERT mRNA level (hTERT mRNA; 72 h, 1 μM) | increase in Tm (ΔTm) ([1]; 2 equivalents) | Tm increase of telomeric G-quadruplex less than that of the hTERT G-quadruplex (Telomeric G4; 1 and 2 equiv) | increase in Tm (ΔTm) (Telomeric G4; 2 equivalents) | reduction of telomere length ([2]; 10 days)
CN(C)c1ccc(Nc2c3ccc(NC(=O)CCN4CCCC4)cc3nc3cc(NC(=O)CCN4CCCC4)ccc23)cc1 [BRACO-19, reference compound] | decreased | 2.41 °C | 8.73 °C | ~60% | 4.24 °C | 14.6 °C | ~12% |  |  |  |  | 
N=C(N)NCCCS(=O)(=O)Nc1ccc(Nc2c3ccccc3nc3cc([N+](=O)[O-])ccc23)cc1 [GTC365] | significant effect |  | 6.47 °C |  |  | 4.4 °C |  | up to 67% | 12.9 °C and 12.92 °C | 42% | 7.5 °C | 20%
